Assay results taken from PMC6275967 (ACS Omega, 2018).
Converted amounts (≈) assume the structure as drawn. “And” between values parts separate entries of the source, which are not always exact repeats. Equal entries are not always repeated.

Legend:
[1] = target: cupin domain of CapF; settings: isothermal titration calorimetry; cited from earlier work
[2] = test system: S. aureus Newman, G01, and F4; assay: MIC80 of S. aureus Newman, G01 and F4
[3] = test system: S. aureus (ATCC 29213); assay: MIC80 by broth microdilution; format: cell-based, Staphylococcus aureus
[4] = test system: E. coli (ATCC 35218); assay: time-killing curve; format: cell-based, Escherichia coli; settings: 16× MIC80, within 6 h
[5] = test system: Cryptococcus neoformans; settings: ref 15 and unpublished data; cited from earlier work
[6] = test system: E. coli (ATCC 35218); assay: MIC80 by broth microdilution; format: cell-based, Escherichia coli; settings: for MIC80 E. coli (ATCC35218): ≥80% growth inhibition, 16–24 h, CAMHB

C=C(C)c1ccccc(=O)c1O [Compound 349, 3-isopropenyl-tropolone]
Kd [1]: 27 ± 7 µM
growth inhibition, in words ([2]; F4 and G01 strains): did not inhibit
MIC80 ([2]; S. aureus F4 (Newman with ermB-inactivated cap5F gene)): 100 µM (≈ 16.2 µg/mL)
MIC80 ([2]; S. aureus G01 (Newman with ermB-inactivated cap5G gene)): 100 µM (≈ 16.2 µg/mL)
MIC80 ([2]; S. aureus Newman): 66.7 µM (≈ 10.8 µg/mL)
growth inhibition, in words ([2]; wild-type Newman): slightly inhibited

O=c1cccccc1S [Compound 363, thiotropolone]
inhibition of S. aureus, in words ([3]; structure-activity discussion): only slightly decreased
reduction of colony count [4]: ~3 log10
MIC80 Cryptococcus neoformans [5]: 0.25 µM (≈ 0.0345 µg/mL)

O=C(Sc1cccccc1=O)c1ccccc1 [Compound 364]
MIC80 S. aureus (ATCC29213) ([3]; ≥80% growth inhibition, 16–24 h, CAMHB): < 20 µM
MIC80 E. coli (ATCC35218) [6]: < 30 µM

O=C(Sc1cccccc1=O)c1ccccc1C(F)(F)F [Compound 677]
MIC80 E. coli (ATCC35218) [6]: < 20 µM

O=C(Sc1cccccc1=O)c1cccc(C(F)(F)F)c1 [Compound 678]
MIC80 E. coli (ATCC35218) [6]: < 20 µM

O=C(Cc1ccccc1)Sc1cccccc1=O [Compound 680]
MIC80 E. coli (ATCC35218) [6]: < 30 µM and < 20 µM

O=c1cccccc1Sc1cccccc1=O [Compound 684]
MIC80 E. coli (ATCC35218) [6]: < 20 µM

O=c1cccccc1SSc1cccccc1=O [Compound 685]
MIC80 E. coli (ATCC35218) [6]: < 20 µM

CC[C@H](C)[C@H](NC(=O)OCC1c2ccccc2-c2ccccc21)C(=O)Sc1cccccc1=O [Compound 686]
activity against E. coli, in words [6]: inactive
